In this experiment the test system is Zymosan Stimulated Macrophages (arachidonic acid release). The experiment is described as follows: Test A: Inhibition of Arachidonic Acid Release from Zymosan Stimulated Macrophages. The class given is cell-based, mouse (female MF1 mice). To be noted: Mus musculus, Macrophage, read-out: Test A IC50. As to the method: Test A was carried out in the following way:
Inhibition of Arachidonic Acid Release from Zymosan Stimulated Macrophages
Female MF1 mice (weighing 20 to 25 g) were killed using a rising concentration of CO2. The mice were laid on their backs and the abdomens wiped with 70% alcohol. The skin was pulled back, exposing the peritoneal wall. Medium A (5 ml) (see below) was injected into the peritoneal cavity of each mouse followed by approximately 1 ml of air using a 20 ml syringe and a 21G×40 mm needle in order to form a suspension of macrophage cells. The medium and cells were then removed using a 19G×40 mm needle. The resulting suspension was returned to a sterile beaker kept on ice. The extracts from all the mice were pooled and this pooled cell suspension was counted using a Coulter counter and adjusted to a final cell count of 1-1.3×10^6 cells/ml prior to labelling with [^3 H]-arachidonic acid. Typically five mice provided sufficient cells for each multiwell plate.
Sufficient [^3 H]-arachidonic acid in ethanol to give a final concentration of 1.6 μCi/ml (equivalent to 40 μCi/plate) was blown to dryness under nitrogen. The arachidonic acid was then resuspended in 1 or 2 ml of the cell suspension which was then mixed with the remainder of the cell suspension in a centrifuge bottle. The labelled cell suspension was then plated out into sterile plastic 96 flat-bottomed well plates (250 μl per well) and incubated overnight at 37° C. in a moist atmosphere of 5% CO2, 95% air.
The following day, non-adherent cells were removed by washing 3 times with sterile phosphate buffered saline (PBS). The adherent peritoneal macrophages were then cultured for a further 24 hours in the presence or absence of drugs, in medium B (see below) at 37° in a 5% CO2 atmosphere in order to measure the effects of drugs on the spontaneous release of arachidonic acid in the absence of stimulus. After this incubation, supernatants were removed to give media 1 and stored in sealed multi-well plates at 4° C. prior to scintillation counting. Drugs which potentiated spontaneous release of arachidonic acid (125% of controls) were deemed to be toxic at the concentration at which this phenomenon occurred. The supernatants were replaced by fresh medium C containing fresh drug and a stimulus. Three drugs were tested at six concentrations (100, 50, 20, 10, 5 and 1 μM) in replicates of four on each plate. The other wells contained controls consisting of a positive control (e.g. dexamethasone), medium (B) only and medium C only.
Incubation was then continued for a further 5 hours, whereupon the supernatants were collected to give media 2 and the adherent cells washed with PBS. The cells were then lysed with 100 μl of 0.1% TRITON® X100 in a 0.1% solution of bovine serum albumin in 0.9% saline and mechanically disrupted to give cell lysates. These supernatants (media 2) and cell lysates (Cells) were also stored in sealed multi-well plates at 4° C. prior to scintillation counting. 200 μl aliquots of media, or 100 μl aliquots of cells were counted using 2 ml of OPTIPHASE "HIGH SAFE" (Trademark of LKB) as scintillant.
The percentage of arachidonic acid released was calculated using the mean values for each group of 4 wells in the following equation. [formula]
The value for the arachidonic acid release in the absence of stimulus (spontaneous, cpm of media 2) from cells which had been exposed to neither stimulus nor drug was subtracted from all equivalent values (cpm media 2, stimulated with or without drug) to give the net stimulated release. The percentage inhibition of arachidonic acid release caused by a drug may then be calculated using the following equation. [formula]
Compounds of formula I were tested at six concentrations (100, 50, 20, 10, 5 and 1 μM) and IC50 values calculated. Compounds with IC50 values≤100 μM are considered to be active. Advantageous compounds have an IC50 value<50 μM.
Medium A (for peritoneal lavage) […]

Setting [1] is: inhibition of arachidonic acid release, zymosan stimulated mouse peritoneal macrophages, tested at 100, 50, 20, 10, 5 and 1 μM, ≤100 μM considered active.

Each structure is given as a SMILES string. pIC50: −log10 of the molar value. Counter-ions that a name gives are not always drawn. Like-named read-outs stand apart in the source and are kept apart here.

We go through 31 molecules from patent US5780642A, “Imidazole derivatives as therapeutic agents” (KNOLL Aktiengesellschaft, priority 1993, dated 1998).

By pIC50 is commonly meant the IC50 on a negative log10 scale, so that one unit is a factor of ten. With `CCC(CC)(NCC(O)Cn1ccnc1)c1ccccc1` (stereo not shown) [Example 44, 1-(1-Ethyl-1-phenylpropylamino)-3-(imidazol-1-yl)-propan-2-ol], the negative logarithm of the IC50 (pIC50) under setting [1] was 3.92.
Still for that read-out and setting: for `CCCCCCNC(=O)Cc1ccc(C(C)(C)NCC(O)Cn2ccnc2)cc1` (stereo not shown) [Example 47, N-Hexyl-4-{1-[2-hydroxy-3-(imidazol-1-yl)propylamino]-1-methylethyl}phenylacetamide] the value was 4.19.
With `CC(C)(NCC(O)Cn1ccnc1)c1ccc(C(=O)NC2CCCCC2)cc1` (stereo not shown) [Example 48, N-Cyclohexyl-4-{1-[2-hydroxy-3-(imidazol-1-yl)propylamino]-1-methylethyl}benzamide], the pIC50 under setting [1] was 4.15.
On the same count and under the same terms, for `CC1(C)COC(c2ccc(C(C)(C)NCC(O)Cn3ccnc3)cc2)=N1` (stereo not shown) [Example 49, 1-{1-[4-(4,4-Dimethyl-2-oxazolin-2-yl)phenyl]-1-methylethylamino}-3-(imidazol-1-yl)propan-2-ol hemihydrate] the value was 4.15.
Regarding `CSc1ccc(OCC(C)(C)NCC(O)Cn2ccnc2)cc1` (stereo not shown) [Example 51, 3-(Imidazol-1-yl)-1-[2-(4-methylthiophenoxy)-1,1-dimethylethylamino]propan-2-ol], the pIC50 under setting [1] was 4.06.
The same measure, in the same setting: with `CC(C)(COc1ccc(Cl)cc1)NCC(O)Cn1ccnc1` (stereo not shown) [Example 52, 1-[2-(4-Chlorophenoxy)-1,1-dimethylethylamino]-3-(imidazol-1-yl)propan-2-ol] the figure was 4.64; with `CC(C)(COc1ccccc1)NCC(O)Cn1ccnc1` (stereo not shown) [Example 53, 3-(Imidazol-1-yl)-1-(2-phenoxy-1,1-dimethylethylamino) propan-2-ol], 4.00.
Same read-out and setting: for `CC(C)(NCCCn1cnc(CCNS(=O)(=O)c2ccccc2)c1)c1ccc(Cl)cc1` [Example 54, N-[2-(1-{3-[1-(4-chlorophenyl)-1-methylethylamino]-propyl}imidazol-4-yl)ethyl]benzenesulphonamide] the value was 5.15; for `CC(C)(NCCCn1cnc(CCNC(=O)c2ccccc2)c1)c1ccc(Cl)cc1` [Example 55, N-[2-(1-(3-[1-(4-chlorophenyl)-1-methylethylamino]propyl}imidazol-4-yl)ethyl]benzamide], 5.15; for `CC(C)(NCCCn1ccnc1)c1ccc(CCNC(=O)c2ccccc2)cc1` [Example 57, N-[2-(4-{1-[3-(imidazol-1-yl)propylamino]-1-methylethyl}phenyl)-ethyl]benzamide], 4.68.
On the same count and under the same terms, with `CCCCNC(=O)NCCc1ccc(C(C)(C)NCCCn2ccnc2)cc1` [Example 58, N-butyl-N'-[2-(4-{1-[3-(imidazol-1-yl)propylamino]-1-methylethyl}phenyl)ethyl]urea] the figure was 4.70.
As to `CC(C)(NCCCn1ccnc1)c1ccc(-c2ccc(O)cc2)cc1` [Example 59, 4'-{1-[3-(imidazol-1-yl)propylamino]-1-methylethyl}biphenyl-4-ol], the negative-log IC50 (pIC50) is 5.10.
For the molecule `CCC(CC)(NCCCn1cnc(CCNC(=O)c2ccc(OC)cc2)c1)c1ccccc1` [Example 61, N-(2-{1-[3-(1-ethyl-1-phenylpropylamino)propyl]-imidazol-4-yl}ethyl)-4-methoxybenzamide], the pIC50 under setting [1] was 5.05.
Still for that read-out and setting: for `CCC(CC)(NCCCn1cnc(CCNC(=O)c2ccc(C#N)cc2)c1)c1ccccc1` [Example 62, 4-cyano-N-(2-{1-[3-(1-ethyl-1-phenylpropylamino)propyl]imidazol-4-yl}ethyl)benzamide] the value was 4.85; for `CC(C)(NCC(O)Cn1cnc(CCNC(=O)c2ccccc2)c1)c1ccc(Cl)cc1` (stereo not shown) [Example 63, N-[2-(1-{3-[1-(4-chlorophenyl)-1-methylethylamino]-2-hydroxypropyl}imidazol-4-yl)ethyl]benzamide], 4.85.
Same read-out and setting: for `COC(=O)CN(CCCn1ccnc1)CCOc1ccc(Cl)cc1` [Example 65, methyl N-[2-(4-chlorophenoxy)ethyl]-N-[3-(imidazol-1-yl)propyl]glycinate] the value was 4.06; for `OCCN(CCCn1ccnc1)CCOc1ccc(Cl)cc1` [Example 66, 2-{N-[2-(4-chlorophenoxy)ethyl]-N-[3-(imidazol-1-yl)propyl]amino}ethanol], 4.62; for `CCCCS(=O)(=O)Oc1ccc(OCCNCCCn2ccnc2)cc1` [Example 67, 4-{2-[3-(imidazol-1-yl)propylamino]ethoxy}phenyl 1-butane sulphonate], 4.70.
Still for that read-out and setting: with `CC(C)(C[S+]([O-])c1ccc(Cl)cc1)NCCCn1ccnc1` (stereo not shown) [Example 68, N-[2-(4-chlorophenylsulphinyl)-1,1-dimethylethyl]-3-(imidazol-1-yl)propylamine dihydrochloride] the figure was 4.00; with `Cc1cc(S(=O)(=O)CC(C)(C)NCCCn2ccnc2)c(C)cc1Cl` [Example 69, N-[2-(4-chloro-2,5-xylylsulphonyl)-1,1-dimethylethyl]-3-(imidazol-1-yl)propylamine dihydrochloride hemihydrate], 4.30.
`CC(C)(CS(=O)(=O)c1ccc(C(C)(C)C)cc1)NCCCn1ccnc1` [Example 70, N-[2-(4-t-butylphenylsulphonyl)-1,1-dimethylethyl]-3-(imidazol-1-yl)-propylamine dihydrochloride]: the pIC50 under setting [1] is 4.08.
`CC(C)(NCCCn1ccnc1)c1ccc(OS(=O)(=O)c2ccccc2)cc1` [Example 71, 4-{1-[3-(imidazol-1-yl)propylamino]-1-methylethyl}phenyl benzenesulphonate]: the pIC50 under setting [1] is 4.64.
With `CCCCS(=O)(=O)Oc1ccc(C(C)(C)NCCCn2ccnc2)cc1` [Example 72, 4-{1-[3-(imidazol-1-yl)propylamino]-1-methylethyl}phenyl 1-butanesulphonate], the pIC50 under setting [1] was 4.62.
On to `CC(C)(NCCCn1ccnc1)c1ccc(Cl)c(NC(=O)c2ccccc2)c1` [Example 73, 2'-chloro-5'-{1-[3-(imidazol-1-yl)propylamino]-1-methylethyl}benzanilide], for which the pIC50 under setting [1] was 4.60.
On to `CCCOC(=O)c1ccc(C(C)(C)NCC(O)Cn2ccnc2)cc1` (stereo not shown) [Example 74, propyl 4-{1-[2-hydroxy-3-(imidazol-1-yl)propylamino]-1-methylethyl}benzoate], for which the pIC50 under setting [1] was 4.09.
As for `CC(C)(COc1ccccc1)NCCCCCn1ccnc1` [Example 75, 5-(imidazol-1-yl)-N-(1,1-dimethyl-2-phenoxyethyl)pentylamine], the pIC50 under setting [1] is 4.59.
Same read-out and setting: with `CC(C)(COc1ccccc1)NCCCn1cnc(CCNC(=O)c2ccccc2)c1` [Example 76, N-(2-{1-[3-(1,1-dimethyl-2-phenoxyethylamino)-propyl]imidazol-4-yl}ethyl)benzamide] the figure was 4.80; with `CC(C)(COc1ccccc1)NCCCn1cnc(CCNS(=O)(=O)c2ccccc2)c1` [Example 77, N-(2-{1-[3-(1,1-dimethyl-2-phenoxyethylamino)propyl]imidazol-4-yl}ethyl]benzene-sulphonamide], 4.92; with `CC(C)(COC(=O)c1ccccc1)NCCCn1ccnc1` [Example 78, 2-[3-(imidazol-1-yl)propylamino]-2,2-dimethylethyl benzoate dihydrochloride], 4.04.
Turning to `CC(C)(COC(=O)c1ccc(Cl)cc1)NCCCn1ccnc1` [Example 79, 2-[3-(imidazol-1-yl)propylamino]-2,2-dimethylethyl 4-chlorobenzoate dihydrochloride], the pIC50 under setting [1] is 4.70.
Same read-out and setting: for `CC(C)(COCc1ccc(Cl)cc1)NCCCn1ccnc1` [Example 80, N-[2-(4-chlorobenzyloxy)-1,1-dimethylethyl]-3-(imidazol-1-yl)propylamine] the value was 4.89.
